Patent US12421211B2, “Heterocyclic compounds” (Hoffmann-La Roche Inc., priority 2021, dated 2025)
Counter-ions that a name gives are not always drawn.

Tested on: Acinetobacter baumannii ATCC17961
Experiment: Antimicrobial susceptibility testing: 90% growth inhibitory concentration (IC90) determination
Assay type: cell-based
Conditions: 90% growth inhibitory concentration, Acinetobacter baumannii ATCC17961, Iso-Sensitest broth, OD 600 nm over 16 h; formic acid; formate; read-out: ATCC 17961 IC90
In short: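 A. baumannii ATCC17961 at ~5×10^5 CFU/ml in Iso-Sensitest broth exposed to 10-point twofold dilutions (e.g. 50–0.097 μM final), 35±2° C. OD600 read every 20 minutes over 16h; IC50 and IC90 derived from inhibition during logarithmic growth.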

| Structure (SMILES) | IC90 [nM] |
| --- | --- |
| COCCn1ncc(-c2ccc(-c3cnc(C(=O)Nc4ccc(C(=O)N5CCN(C(=O)C6CC[N+](CC(=O)O)(CC7CNC7)CC6)CC5)c(Cl)c4)n3C)c(F)c2F)c1C (stereo not drawn) [Example B30, 2-[1-(azetidin-3-ylmethyl)-4-[4-[2-chloro-4-[[5-[2,3-difluoro-4-[1-(2-methoxyethyl)-5-methyl-pyrazol-4-yl]phenyl]-1-methyl-imidazole-2-carbonyl]amino]benzoyl]piperazine-1-carbonyl]piperidin-1-ium-1-yl]acetic acid; formic acid; formate] | 190 |

Same assay, conditions: Acinetobacter baumannii, ATCC17961, 16 h, 90% growth inhibitory concentration, Acinetobacter baumannii ATCC17961, Iso-Sensitest broth, OD 600 nm over 16 h; read-out: ATCC 17961 IC90

| Structure (SMILES) | IC90 [nM] |
| --- | --- |
| COCCn1ncc(-c2ccc(-c3cnc(C(=O)Nc4ccc(C(=O)N5CCN(C(=O)C6CC[N+](CC(=O)O)(CC7CNC7)CC6)CC5)c(Cl)c4)n3C)c(F)c2Cl)c1C (stereo not drawn) [Example B28, 2-[1-(azetidin-3-ylmethyl)-4-[4-[2-chloro-4-[[5-[3-chloro-2-fluoro-4-[1-(2-methoxyethyl)-5-methyl-pyrazol-4-yl]phenyl]-1-methyl-imidazole-2-carbonyl]amino]benzoyl]piperazine-1-carbonyl]piperidin-1-ium-1-yl]acetic acid; formate] | 230 |
| COCCn1cc(-c2ccc(-c3cnc(C(=O)Nc4ccc(C(=O)N5CCN(C(=O)[C@@H]6C[C@@H](O)C[N+]6(C)C)CC5)c(Cl)c4)n3C)c(F)c2F)c(C(C)C)n1 [Example F11, N-[3-chloro-4-[4-[(2S,4R)-4-hydroxy-1,1-dimethyl-pyrrolidin-1-ium-2-carbonyl]piperazine-1-carbonyl]phenyl]-5-[2,3-difluoro-4-[3-isopropyl-1-(2-methoxyethyl)pyrazol-4-yl]phenyl]-1-methyl-imidazole-2-carboxamide; formate] | 800 |
| Cc1nn(CC(=O)Nc2ccc(C(=O)N3CC[N+](C)(C)CC3)cc2)cc1-c1ccc(-c2cnc(C(=O)Nc3ccc(C(=O)N4CCN(C(=O)C5CC[N+](C)(C)CC5)CC4)c(Cl)c3)n2C)c(F)c1F [Example G30, N-[3-chloro-4-[4-(1,1-dimethylpiperidin-1-ium-4-carbonyl)piperazine-1-carbonyl]phenyl]-5-[4-[1-[2-[4-(4,4-dimethylpiperazin-4-ium-1-carbonyl)anilino]-2-oxo-ethyl]-3-methyl-pyrazol-4-yl]-2,3-difluoro-phenyl]-1-methyl-imidazole-2-carboxamide; diformate] | 1000 |
| Cc1nn(CC(=O)NC(C)C)cc1-c1ccc(-c2cnc(C(=O)Nc3ccc(C(=O)N4CCN(C(=O)C5CC[N+](C)(C)CC5)CC4)c(Cl)c3)n2C)c(F)c1F [Example G1, N-[3-chloro-4-[4-(1,1-dimethylpiperidin-1-ium-4-carbonyl)piperazine-1-carbonyl]phenyl]-5-[2,3-difluoro-4-[1-[2-(isopropylamino)-2-oxo-ethyl]-3-methyl-pyrazol-4-yl]phenyl]-1-methyl-imidazole-2-carboxamide; formate] | 290 |
| Cc1nn(CC(=O)NC(C)(C)C)cc1-c1ccc(-c2cnc(C(=O)Nc3ccc(C(=O)N4CCN(C(=O)C5CC[N+](C)(C)CC5)CC4)c(Cl)c3)n2C)c(F)c1F [Example G2, 5-[4-[1-[2-(tert-butylamino)-2-oxo-ethyl]-3-methyl-pyrazol-4-yl]-2,3-difluoro-phenyl]-N-[3-chloro-4-[4-(1,1-dimethylpiperidin-1-ium-4-carbonyl)piperazine-1-carbonyl]phenyl]-1-methyl-imidazole-2-carboxamide; formate] | 320 |
| Cc1c(-c2ccc(-c3cnc(C(=O)Nc4ccc(C(=O)N5CCN(C(=O)C6CC[N+](C)(C)CC6)CC5)c(Cl)c4)n3C)c(F)c2F)cnn1CC(=O)NC(C)(C)C [Example G18, 5-[4-[1-[2-(tert-butylamino)-2-oxo-ethyl]-5-methyl-pyrazol-4-yl]-2,3-difluoro-phenyl]-N-[3-chloro-4-[4-(1,1-dimethylpiperidin-1-ium-4-carbonyl)piperazine-1-carbonyl]phenyl]-1-methyl-imidazole-2-carboxamide; formate] | 510 |
| COc1ccc(-c2[nH]ncc2-c2ccc(-c3cnc(C(=O)Nc4ccc(C(=O)N5CCN(C(=O)C6CC[N+](C)(C)CC6)CC5)c(Cl)c4)n3C)c(F)n2)cc1 [Example F59, N-[3-chloro-4-[4-(1,1-dimethylpiperidin-1-ium-4-carbonyl)piperazine-1-carbonyl]phenyl]-5-[2-fluoro-6-[5-(4-methoxyphenyl)-1H-pyrazol-4-yl]-3-pyridyl]-1-methyl-imidazole-2-carboxamide; formate] | 750 |
| COCCn1nc(C)c(-c2ccc(-c3cnc(C(=O)Nc4ccc(C(=O)N5CCN(C(=O)C6CC[N+](C)(C)CC6)CC5)c(Cl)c4)n3C)cc2)c1C [Example A3, N-[3-chloro-4-[4-(1,1-dimethylpiperidin-1-ium-4-carbonyl)piperazine-1-carbonyl]phenyl]-5-[4-[1-(2-methoxyethyl)-3,5-dimethyl-pyrazol-4-yl]phenyl]-1-methyl-imidazole-2-carboxamide; formate] | 230 |
| Cc1nn(Cc2ccc(N)cn2)cc1-c1ccc(-c2cnc(C(=O)Nc3ccc(C(=O)N4CCN(C(=O)C5CC[N+](C)(C)CC5)CC4)c(Cl)c3)n2C)c(F)c1F [Example F43, 5-[4-[1-[(5-amino-2-pyridyl)methyl]-3-methyl-pyrazol-4-yl]-2,3-difluoro-phenyl]-N-[3-chloro-4-[4-(1,1-dimethylpiperidin-1-ium-4-carbonyl)piperazine-1-carbonyl]phenyl]-1-methyl-imidazole-2-carboxamide; chloride] | 570 |
| Cc1nn(CC(=O)Nc2ccc(F)nn2)cc1-c1ccc(-c2cnc(C(=O)Nc3ccc(C(=O)N4CCN(C(=O)C5CC[N+](C)(C)CC5)CC4)c(Cl)c3)n2C)c(F)c1F [Example G31, N-[3-chloro-4-[4-(1,1-dimethylpiperidin-1-ium-4-carbonyl)piperazine-1-carbonyl]phenyl]-5-[2,3-difluoro-4-[1-[2-[(6-fluoropyridazin-3-yl)amino]-2-oxo-ethyl]-3-methyl-pyrazol-4-yl]phenyl]-1-methyl-imidazole-2-carboxamide; formate] | 140 |
| COCCn1nc(C)c(-c2ccc(-c3cnc(C(=O)Nc4ccc(C(=O)N5CCN(C(=O)C[N+]6(C)CCC(O)C6)CC5)c(Cl)c4)n3C)c(F)c2F)c1C (stereo not drawn) [Example C11, N-[3-chloro-4-[4-[2-(3-hydroxy-1-methyl-pyrrolidin-1-ium-1-yl)acetyl]piperazine-1-carbonyl]phenyl]-5-[2,3-difluoro-4-[1-(2-methoxyethyl)-3,5-dimethyl-pyrazol-4-yl]phenyl]-1-methyl-imidazole-2-carboxamide; formate] | 320 |
| COCCn1ncc(-c2ccc(-c3cnc(C(=O)Nc4ccc(C(=O)N5CCN(C(=O)C6CC[N+](C)(C)CC6)CC5)c(Cl)c4)n3C)c(Cl)c2)c1C [Example F22, N-[3-chloro-4-[4-(1,1-dimethylpiperidin-1-ium-4-carbonyl)piperazine-1-carbonyl]phenyl]-5-[2-chloro-4-[1-(2-methoxyethyl)-5-methyl-pyrazol-4-yl]phenyl]-1-methyl-imidazole-2-carboxamide; formate] | 170 |
| COCCn1ncc(-c2ccc(-c3cnc(C(=O)Nc4ccc(C(=O)N5CCC(C(=O)NCCCc6cc[n+](CC(=O)O)c(CCCN)c6)CC5)c(Cl)c4)n3C)c(F)c2F)c1C [Example O12, 2-[2-(3-aminopropyl)-4-[3-[[1-[2-chloro-4-[[5-[2,3-difluoro-4-[1-(2-methoxyethyl)-5-methyl-pyrazol-4-yl]phenyl]-1-methyl-imidazole-2-carbonyl]amino]benzoyl]isonipecotoyl]amino]-propyl]pyridin-1-ium-1-yl]acetic acid; formate] | 339 |

Same assay, conditions: Acinetobacter baumannii, ATCC17961, 16 h, read-out: ATCC 17961 IC90

| Structure (SMILES) | IC90 [nM] |
| --- | --- |
| Cc1n[nH]cc1-c1ccc(-c2cnc(C(=O)Nc3ccc(C(=O)N4CCN(C(=O)C5CCC[N+]5(C)CCO)CC4)c(Cl)c3)n2C)c(F)c1F (stereo not drawn) [Example B35, N-[3-chloro-4-[4-[1-(2-hydroxyethyl)-1-methyl-pyrrolidin-1-ium-2-carbonyl]piperazine-1-carbonyl]phenyl]-5-[2,3-difluoro-4-(3-methyl-1H-pyrazol-4-yl)phenyl]-1-methyl-imidazole-2-carboxamide; 2,2,2-trifluoroacetate] | 130 |
| COCCn1cc(-c2ccc(-c3cnc(C(=O)Nc4ccc(C(=O)N5CCN(C(=O)[C@H]6CC[N@+](CC(=O)O)(CC7CNC7)CC6)CC5)c(Cl)c4)n3C)c(F)c2F)c(C)n1 [Example Q4, cis 2-[1-(azetidin-3-ylmethyl)-4-[4-[2-chloro-4-[[5-[2,3-difluoro-4-[1-(2-methoxyethyl)-3-methyl-pyrazol-4-yl]phenyl]-1-methyl-imidazole-2-carbonyl]amino]benzoyl]piperazine-1-carbonyl]piperidin-1-ium-1-yl]acetic acid formate;] | 195 |
| Cc1nn(CC(=O)Nc2ccc(F)nn2)cc1-c1ccc(-c2cnc(C(=O)Nc3ccc(C(=O)N4CCN(C(=O)C5CC[N+](C)(C)CC5)CC4)c(Cl)c3)n2C)cc1F [Example L2, N-[3-chloro-4-[4-(1,1-dimethylpiperidin-1-ium-4-carbonyl)piperazine-1-carbonyl]phenyl]-5-[3-fluoro-4-[1-[2-[(6-fluoropyridazin-3-yl)amino]-2-oxo-ethyl]-3-methyl-pyrazol-4-yl]phenyl]-1-methyl-imidazole-2-carboxamide; formate] | 168 |
| COCCn1ncc(-c2ccc(-c3cnc(C(=O)Nc4ccc(C(=O)N5CCN(C(=O)CCC[N+](CCCCN)(CCCCN)CC(=O)O)CC5C)c(Cl)c4)n3C)c(F)c2F)c1C (stereo not drawn) [Example O3, bis(4-aminobutyl)-(carboxymethyl)-[4-[4-[2-chloro-4-[[5-[2,3-difluoro-4-[1-(2-methoxyethyl)-5-methyl-pyrazol-4-yl]phenyl]-1-methyl-imidazole-2-carbonyl]amino]benzoyl]-3-methyl-piperazino]-4-keto-butyl]ammonium formate] | 113 |
